Test results: patent publication US6720346B2, “Thiazole benzamide derivatives and pharmaceutical compositions for inhibiting cell proliferation” (Agouron Pharmaceuticals, Inc., priority 2001, dated 2004)

Assays:
[1] = molecular target: T1, CDK2/cyclin A (Homo sapiens, UniProt P24941); assay: Inhibition of CDK2/cyclin A retinoblastoma kinase activity (Ki; % inhibition); type: biochemical; conditions: 0.03 μM compound
T1 construct: made in house; host or cells: CDK2: insect cells (baculovirus); cyclin A: E. coli
Summary of the method: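 Radiometric filter assay of CDK2/proteolyzed cyclin A (baculovirus-expressed human CDK2, 10 or 19 nM) phosphorylating an Rb fragment with 25 μM [³²P/³³P]ATP in pH 7.4 HEPES, 2% DMSO, at 30 °C for 60 or 75 min under initial-rate conditions. Library compounds screened at 30 nM for % inhibition; apparent Ki from concentration series fit to competitive or tight-binding inhibition equations.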

[2] = molecular target: T2, human CDK4/cyclin D3 (Homo sapiens, UniProt P11802); assay: Inhibition of CDK4/cyclin D retinoblastoma kinase activity (Ki; % inhibition); type: biochemical; conditions: 0.03 μM compound
T2 construct: made in house; host or cells: insect cells co-infected with baculovirus vectors
T2 sequence (P11802 whole entry): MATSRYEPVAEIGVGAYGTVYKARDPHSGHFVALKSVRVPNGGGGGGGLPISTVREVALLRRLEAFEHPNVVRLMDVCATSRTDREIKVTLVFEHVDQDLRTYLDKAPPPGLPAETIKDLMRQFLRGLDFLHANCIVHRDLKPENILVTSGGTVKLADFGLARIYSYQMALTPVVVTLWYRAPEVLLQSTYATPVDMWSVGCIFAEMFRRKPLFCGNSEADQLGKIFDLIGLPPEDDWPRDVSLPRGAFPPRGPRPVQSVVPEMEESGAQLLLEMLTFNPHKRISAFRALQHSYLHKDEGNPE
T2 sequence (P30281 1-264 partner limits assumed): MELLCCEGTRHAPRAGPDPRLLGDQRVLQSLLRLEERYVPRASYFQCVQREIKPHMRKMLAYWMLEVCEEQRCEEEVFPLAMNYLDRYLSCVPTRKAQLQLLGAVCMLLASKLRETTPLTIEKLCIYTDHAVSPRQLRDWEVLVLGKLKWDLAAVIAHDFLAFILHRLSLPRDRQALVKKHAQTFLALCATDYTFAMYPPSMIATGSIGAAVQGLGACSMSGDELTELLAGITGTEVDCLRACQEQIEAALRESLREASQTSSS
Summary of the method: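 Insect-cell-expressed CDK4 with truncated cyclin D3 (1-264), 5 nM, phosphorylating His-tagged Rb fragment (386-928) with 25 μM [32/33P]ATP at pH 7.4, 30 °C, 20 min (60 min for tight binders). Filter capture, phosphorimager read; % inhibition at 30 nM compound, Ki from competitive or tight-binding fits.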

[3] = system: HCT-116 cell line; assay: Inhibition of cell growth, MTT tetrazolium salt assay; type: cell-based; conditions: HCT-116 cells; for HCT-116 % Inhibition at 0.1 μM: 0.1 μM compound; for HCT-116 % Inhibition at 0.25 μM: 0.25 μM compound
Summary of the method: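 HCT-116 cells in McCoy's 5A were dosed 4 h after plating with compounds in 0.5% DMSO and grown 3–5 days at 37 °C. Then 0.2 mg/mL MTT was added for 4 h and formazan absorbance read at 540 nm. IC50/IC90 came from semi-log plots against DMSO-only controls.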

Compound	CDK2 % Inhibition at 0.03 μM [1]	CDK4 % Inhibition at 0.03 μM [2]	HCT-116 % Inhibition at 0.1 μM [3]	HCT-116 % Inhibition at 0.25 μM [3]	CDK2 % Inhibition at 0.03 μM ([1]; 0.03 µM)	CDK4 % Inhibition at 0.03 μM ([2]; 0.03 µM)	HCT-116 % Inhibition at 0.1 μM ([3]; 0.1 µM)	HCT-116 % Inhibition at 0.25 μM ([3]; 0.25 µM)
Nc1nc(Nc2ccc(C(=O)NCCC3OCCO3)cc2)sc1C(=O)c1c(F)cccc1F [Example G342]	−10%	13%	20%	55%	–	–	–	–
Nc1nc(Nc2ccc(C(=O)NCCc3cccnc3)cc2)sc1C(=O)c1c(F)cccc1F [Example G343]	1%	12%	27%	71%	–	–	–	–
CCOC(CNC(=O)c1ccc(Nc2nc(N)c(C(=O)c3c(F)cccc3F)s2)cc1)OCC [Example G344]	25%	18%	24%	50%	–	–	–	–
COc1ccc(CNC(=O)c2ccc(Nc3nc(N)c(C(=O)c4c(F)cccc4F)s3)cc2)cc1OC [Example G345]	−2%	6%	22%	36%	–	–	–	–
Nc1nc(Nc2ccc(C(=O)NC3CCC(O)CC3)cc2)sc1C(=O)c1c(F)cccc1F (stereo not shown) [Example G346]	11%	11%	15%	52%	–	–	–	–
COc1ccc(NC(=O)c2ccc(Nc3nc(N)c(C(=O)c4c(F)cccc4F)s3)cc2)cc1F [Example G347]	13%	15%	21%	53%	–	–	–	–
CC(=O)N(C)C1CCN(C(=O)c2ccc(Nc3nc(N)c(C(=O)c4c(F)cccc4F)s3)cc2)C1 (stereo not shown) [Example G348]	−21%	14%	23%	51%	–	–	–	–
Nc1nc(Nc2ccc(C(=O)NCCc3cccc(F)c3)cc2)sc1C(=O)c1c(F)cccc1F [Example G349]	−6%	11%	31%	48%	–	–	–	–
Nc1nc(Nc2ccc(C(=O)N(CCCCO)Cc3ccccc3)cc2)sc1C(=O)c1c(F)cccc1F [Example G351]	0%	−1%	24%	62%	–	–	–	–
Cc1ccc(NC(=O)c2ccc(Nc3nc(N)c(C(=O)c4c(F)cccc4F)s3)cc2)nc1 [Example G352]	4%	0%	24%	64%	–	–	–	–
Nc1nc(Nc2ccc(C(=O)NC3CCN(Cc4ccccc4)C3)cc2)sc1C(=O)c1c(F)cccc1F (stereo not shown) [Example G353]	–	–	–	–	35%	46%	0%	55%
COC(=O)c1ccc(NC(=O)c2ccc(Nc3nc(N)c(C(=O)c4c(F)cccc4F)s3)cc2)c(C)c1 [Example G354]	9%	3%	31%	60%	–	–	–	–
Nc1nc(Nc2ccc(C(=O)NCCc3ccc(F)cc3)cc2)sc1C(=O)c1c(F)cccc1F [Example G355]	29%	13%	28%	54%	–	–	–	–
CCCN(C(=O)c1ccc(Nc2nc(N)c(C(=O)c3c(F)cccc3F)s2)cc1)C(C)CC (stereo not shown) [Example G356]	−16%	5%	27%	50%	–	–	–	–
CN(C)CCCN1CCN(C(=O)c2ccc(Nc3nc(N)c(C(=O)c4c(F)cccc4F)s3)cc2)CC1 [Example G357]	−14%	17%	17%	88%	–	–	–	–
Nc1nc(Nc2ccc(C(=O)NCCCCCCO)cc2)sc1C(=O)c1c(F)cccc1F [Example G358]	−5%	7%	21%	55%	–	–	–	–
Nc1nc(Nc2ccc(C(=O)N[C@H](CO)CC3CCCCC3)cc2)sc1C(=O)c1c(F)cccc1F [Example G359]	−7%	−5%	25%	69%	–	–	–	–
Cc1cccc(CNC(=O)c2ccc(Nc3nc(N)c(C(=O)c4c(F)cccc4F)s3)cc2)c1 [Example G360]	31%	9%	18%	73%	–	–	–	–
COc1ccc(CCN(C)C(=O)c2ccc(Nc3nc(N)c(C(=O)c4c(F)cccc4F)s3)cc2)cc1OC [Example G361]	−3%	−1%	26%	48%	–	–	–	–
COCCN1CCN(C(=O)c2ccc(Nc3nc(N)c(C(=O)c4c(F)cccc4F)s3)cc2)CC1 [Example G362]	12%	6%	9%	57%	–	–	–	–
CN(CCCNC(=O)c1ccc(Nc2nc(N)c(C(=O)c3c(F)cccc3F)s2)cc1)c1ccccc1 [Example G363]	27%	16%	24%	63%	–	–	–	–
CCCN(CCC#N)C(=O)c1ccc(Nc2nc(N)c(C(=O)c3c(F)cccc3F)s2)cc1 [Example G364]	−12%	9%	20%	40%	–	–	–	–
Nc1nc(Nc2ccc(C(=O)NCCSCCO)cc2)sc1C(=O)c1c(F)cccc1F [Example G366]	1%	8%	26%	55%	–	–	–	–
Nc1nc(Nc2ccc(C(=O)NCC3COc4ccccc4O3)cc2)sc1C(=O)c1c(F)cccc1F (stereo not shown) [Example G367]	38%	15%	22%	71%	–	–	–	–
Nc1nc(Nc2ccc(C(=O)Nc3ccc(C(F)(F)F)cc3)cc2)sc1C(=O)c1c(F)cccc1F [Example G368]	3%	−3%	25%	50%	–	–	–	–
Nc1nc(Nc2ccc(C(=O)Nc3cccc(-c4nnco4)c3)cc2)sc1C(=O)c1c(F)cccc1F [Example G369]	26%	8%	21%	36%	–	–	–	–
CN(CCC(O)c1ccccc1)C(=O)c1ccc(Nc2nc(N)c(C(=O)c3c(F)cccc3F)s2)cc1 (stereo not shown) [Example G370]	22%	17%	19%	52%	–	–	–	–
Nc1nc(Nc2ccc(C(=O)Nc3cccc(C(F)(F)F)c3)cc2)sc1C(=O)c1c(F)cccc1F [Example G371]	11%	7%	27%	53%	–	–	–	–
